Assay results as given in patent US20050197350A1, “Novel quinoline, tetrahydroquinazoline, and pyrimidine derivatives and methods of treatment related to the use thereof” (TAISHO PHARMACEUTICAL CO., LTD., priority 2003, published 2005).

The compounds below were run on MCH receptors (assay: MCH receptor activity class (method not given)). Conditions: class by percent of control at 10^-7 M or IC50.

SMILES	class
COc1cc(C(=O)N[C@H]2CC[C@@H](Nc3nccc(N(C)C)n3)CC2)ccc1[N+](=O)[O-] [compound 829, N-(cis-4-{[4-(dimethylamino)pyrimidin-2-yl]amino}cyclohexyl)-3-methoxy-4-nitrobenzamide]	1 (Class 1: The value of percent of control at 10^−7 M was less than 40% or the value of IC50 was less than 50 nM.)
CN(C)c1ccnc(N[C@H]2CC[C@@H](NC(=O)c3cn(Cc4ccccc4)c4ccccc34)CC2)n1 [compound 830, 1-benzyl-N-(cis-4-{[4-(dimethylamino)pyrimidin-2-yl]amino}cyclohexyl)-1H-indole-3-carboxamide]	2 (Class 2: The value of percent of control at 10^−7 M was from 40% to 60% or the value of IC′50 was from 50 nM to 200 nM.)
CC(=O)c1cccc(C(=O)N[C@H]2CC[C@@H](Nc3nccc(N(C)C)n3)CC2)c1 [compound 831]	2 (Class 2: The value of percent of control at 10^−7 M was from 40% to 60% or the value of IC′50 was from 50 nM to 200 nM.)
CN(C)c1ccnc(N[C@H]2CC[C@@H](NC(=O)C3CCCC[C@H]3C(=O)c3ccccc3)CC2)n1 (stereo partly shown) [compound 832]	3 (Class 3 The value of percent of control at 10^−7 M was more than 60% or the value of IC50 was more than 200 nM.)
CN(C)c1ccnc(N[C@H]2CC[C@@H](NC(=O)c3ccc(Br)o3)CC2)n1 [compound 833, 5-bromo-N-(cis-4-{[4-(dimethylamino)pyrimidin-2-yl]amino}cyclohexyl)-2-furamide]	1 (Class 1: The value of percent of control at 10^−7 M was less than 40% or the value of IC50 was less than 50 nM.)
CN(C)c1ccnc(N[C@H]2CC[C@@H](NC(=O)CCC3CCCCC3)CC2)n1 [compound 834]	3 (Class 3 The value of percent of control at 10^−7 M was more than 60% or the value of IC50 was more than 200 nM.)
Cc1ccnc(SCC(=O)N[C@H]2CC[C@@H](Nc3nccc(N(C)C)n3)CC2)n1 [compound 835]	3 (Class 3 The value of percent of control at 10^−7 M was more than 60% or the value of IC50 was more than 200 nM.)
CN(C)c1ccnc(N[C@H]2CC[C@@H](NC(=O)c3ccc(-c4ccc(Cl)cc4)o3)CC2)n1 [compound 836]	1 (Class 1: The value of percent of control at 10^−7 M was less than 40% or the value of IC50 was less than 50 nM.)
CN(C)c1ccnc(N[C@H]2CC[C@@H](NC(=O)CCc3ccc(Cl)c(Cl)c3)CC2)n1 [compound 837]	3 (Class 3 The value of percent of control at 10^−7 M was more than 60% or the value of IC50 was more than 200 nM.)
CN(C)c1ccnc(N[C@H]2CC[C@@H](NC(=O)Cc3ccc(Cl)c(Cl)c3)CC2)n1 [compound 838]	3 (Class 3 The value of percent of control at 10^−7 M was more than 60% or the value of IC50 was more than 200 nM.)
COc1cc(CC(=O)N[C@H]2CC[C@@H](Nc3nccc(N(C)C)n3)CC2)cc(OC)c1O [compound 839]	3 (Class 3 The value of percent of control at 10^−7 M was more than 60% or the value of IC50 was more than 200 nM.)
COc1cc(CC(=O)N[C@H]2CC[C@@H](Nc3nccc(N(C)C)n3)CC2)cc(OC)c1 [compound 841]	3 (Class 3 The value of percent of control at 10^−7 M was more than 60% or the value of IC50 was more than 200 nM.)
CN(C)c1ccnc(N[C@H]2CC[C@@H](NC(=O)Cc3cc(C(C)(C)C)c(O)c(C(C)(C)C)c3)CC2)n1 [compound 842]	1 (Class 1: The value of percent of control at 10^−7 M was less than 40% or the value of IC50 was less than 50 nM.)
CN(C)c1cccc(C(=O)N[C@H]2CC[C@@H](Nc3nccc(N(C)C)n3)CC2)c1 [compound 844]	2 (Class 2: The value of percent of control at 10^−7 M was from 40% to 60% or the value of IC′50 was from 50 nM to 200 nM.)
CN(C)c1ccnc(N[C@H]2CC[C@@H](NC(=O)c3cc(Br)c(Br)o3)CC2)n1 [compound 845]	1 (Class 1: The value of percent of control at 10^−7 M was less than 40% or the value of IC50 was less than 50 nM.)
CN(C)c1ccnc(N[C@H]2CC[C@@H](NC(=O)CCC(=O)c3ccc(F)cc3)CC2)n1 [compound 846]	3 (Class 3 The value of percent of control at 10^−7 M was more than 60% or the value of IC50 was more than 200 nM.)
CN(C)c1ccnc(N[C@H]2CC[C@@H](NC(=O)[C@H](Cc3cn(Cc4ccccc4)cn3)NC(=O)OC(C)(C)C)CC2)n1 [compound 848]	3 (Class 3 The value of percent of control at 10^−7 M was more than 60% or the value of IC50 was more than 200 nM.)
CN(C)c1ccnc(N[C@H]2CC[C@@H](NC(=O)Cc3c[nH]c4ccccc34)CC2)n1 [compound 850]	2 (Class 2: The value of percent of control at 10^−7 M was from 40% to 60% or the value of IC′50 was from 50 nM to 200 nM.)
Cc1sc(-c2ccccc2)nc1CC(=O)N[C@H]1CC[C@@H](Nc2nccc(N(C)C)n2)CC1 [compound 851, N-(cis-4-{[4-(dimethylamino)pyrimidin-2-yl]amino}cyclohexyl)-2-(5-methyl-2-phenyl-1,3-thiazol-4-yl)acetamide]	2 (Class 2: The value of percent of control at 10^−7 M was from 40% to 60% or the value of IC′50 was from 50 nM to 200 nM.)

SMILES	class
COc1ccc(CSC2(CC(=O)N[C@H]3CC[C@@H](Nc4nccc(N(C)C)n4)CC3)CCCCC2)cc1 [compound 853]	3 (Class 3 The value of percent of control at 10^−7 M was more than 60% or the value of IC50 was more than 200 nM.)
COc1ccc2c(CC(=O)N[C@H]3CC[C@@H](Nc4nccc(N(C)C)n4)CC3)cc(=O)oc2c1 [compound 854]	3 (Class 3 The value of percent of control at 10^−7 M was more than 60% or the value of IC50 was more than 200 nM.)
Cc1cc(C)c(NC(=O)Nc2ccc(OC(F)(F)F)cc2)c(C(=O)N[C@H]2CC[C@@H](Nc3nccc(N(C)C)n3)CC2)c1 [compound 857]	3 (Class 3 The value of percent of control at 10^−7 M was more than 60% or the value of IC50 was more than 200 nM.)
CN(C)c1ccnc(N[C@H]2CC[C@@H](NC(=O)c3cc(Cl)cc(Cl)c3NC(=O)C#Cc3ccccc3)CC2)n1 [compound 858]	2 (Class 2: The value of percent of control at 10^−7 M was from 40% to 60% or the value of IC′50 was from 50 nM to 200 nM.)
CN(C)c1ccnc(N[C@H]2CC[C@@H](NC(=O)c3cccc(-n4c(-c5ccc(Br)cc5)cc5c4CC(C)(C)CC5=O)c3)CC2)n1 [compound 859]	3 (Class 3 The value of percent of control at 10^−7 M was more than 60% or the value of IC50 was more than 200 nM.)
Cc1c(C(=O)N[C@H]2CC[C@@H](Nc3nccc(N(C)C)n3)CC2)cc(-c2ccccc2)n1CCCN1CCOCC1 [compound 863, N-(cis-4-{[4-(dimethylamino)pyrimidin-2-yl]amino}cyclohexyl)-2-methyl-1-(3-morpholin-4-ylpropyl)-5-phenyl-1H-pyrrole-3-carboxamide]	2 (Class 2: The value of percent of control at 10^−7 M was from 40% to 60% or the value of IC′50 was from 50 nM to 200 nM.)
CN(C)c1ccnc(N[C@H]2CC[C@@H](NC(=O)CCCc3ccc([N+](=O)[O-])cc3)CC2)n1 [compound 864, N-(cis-4-{[4-(dimethylamino)pyrimidin-2-yl]amino}cyclohexyl)-4-(4-nitrophenyl)butanamide]	2 (Class 2: The value of percent of control at 10^−7 M was from 40% to 60% or the value of IC′50 was from 50 nM to 200 nM.)
CN(C)c1ccnc(N[C@H]2CC[C@@H](NC(=O)/C=C/c3ccccc3[N+](=O)[O-])CC2)n1 [compound 866]	3 (Class 3 The value of percent of control at 10^−7 M was more than 60% or the value of IC50 was more than 200 nM.)
CN(C)c1ccnc(N[C@H]2CC[C@@H](NC(=O)Cc3cccc(Oc4ccccc4)c3)CC2)n1 [compound 867]	3 (Class 3 The value of percent of control at 10^−7 M was more than 60% or the value of IC50 was more than 200 nM.)
CN(C)c1ccnc(N[C@H]2CC[C@@H](NC(=O)Cc3ccc(Oc4ccccc4)cc3)CC2)n1 [compound 868]	3 (Class 3 The value of percent of control at 10^−7 M was more than 60% or the value of IC50 was more than 200 nM.)
CN(C)c1ccnc(N[C@H]2CC[C@@H](NC(=O)Cc3c(-c4ccccc4)[nH]c4ccccc34)CC2)n1 [compound 869, N-(cis-4-{[4-(dimethylamino)pyrimidin-2-yl]amino}cyclohexyl)-2-(2-phenyl-1H-indol-3-yl)acetamide]	1 (Class 1: The value of percent of control at 10^−7 M was less than 40% or the value of IC50 was less than 50 nM.)
CN(C)c1ccnc(N[C@H]2CC[C@@H](NC(=O)c3cccc(Oc4ccccc4)c3)CC2)n1 [compound 871]	2 (Class 2: The value of percent of control at 10^−7 M was from 40% to 60% or the value of IC′50 was from 50 nM to 200 nM.)
CN(C)c1ccnc(N[C@H]2CC[C@@H](NC(=O)c3ccccc3CCc3ccccc3)CC2)n1 [compound 872]	3 (Class 3 The value of percent of control at 10^−7 M was more than 60% or the value of IC50 was more than 200 nM.)
CN(C)c1ccnc(N[C@H]2CC[C@@H](NC(=O)c3cccc(C(=O)c4ccccc4)c3)CC2)n1 [compound 873]	2 (Class 2: The value of percent of control at 10^−7 M was from 40% to 60% or the value of IC′50 was from 50 nM to 200 nM.)
CCSC(C(=O)N[C@H]1CC[C@@H](Nc2nccc(N(C)C)n2)CC1)(c1ccccc1)c1ccccc1 [compound 874, N-(cis-4-{[4-(dimethylamino)pyrimidin-2-yl]amino}cyclohexyl)-2-(ethylthio)-2,2-diphenylacetamide]	1 (Class 1: The value of percent of control at 10^−7 M was less than 40% or the value of IC50 was less than 50 nM.)
CN(C)c1ccnc(N[C@H]2CC[C@@H](NC(=O)c3ccccc3Sc3ccccc3C#N)CC2)n1 [compound 875]	3 (Class 3 The value of percent of control at 10^−7 M was more than 60% or the value of IC50 was more than 200 nM.)
COc1cc(CC(=O)N[C@H]2CC[C@@H](Nc3nccc(N(C)C)n3)CC2)ccc1OCc1ccccc1 [compound 876]	3 (Class 3 The value of percent of control at 10^−7 M was more than 60% or the value of IC50 was more than 200 nM.)
C[C@@H](NC(=O)c1ccccc1C(=O)N[C@H]1CC[C@@H](Nc2nccc(N(C)C)n2)CC1)c1cccc2ccccc12 [compound 877, N-(cis-4-{[4-(dimethylamino)pyrimidin-2-yl]amino}cyclohexyl)-N′-[(1R)-1-(1-naphthyl)ethyl]phthalamide]	2 (Class 2: The value of percent of control at 10^−7 M was from 40% to 60% or the value of IC′50 was from 50 nM to 200 nM.)
